Patent EP4741380A1, “ISOXAZOLINE COMPOUND AND USE” (priority 2024, dated 2025)
Read-outs that look alike come from different tables or passages of the source.

Test system: mites
Experiment: Mite killing efficacy test with an in vitro model
Conditions: 30 µM drug solution
Protocol: Mite collection: Live mites were gently picked up from a cage box with cotton swabs or small tweezers, 17-26 live mites per group.
Drug treatment and detection method: 100 µL of a drug solution with a different concentration (drug solution prepared by 3% DMSO solution + 97% water and having a target final concentration of 30 µM) was aspirated with a pipette and added to a 24-well plate for each group, ensuring full contact between the drug and the mites. The mites were separately incubated at normal temperature for 5 min, transferred from each plate to another dry 24-well plate with the top sealed, and air-dried for about 1 h. Mite actions were observed, and the number of dead mites/the total number of mites was recorded. Then, the 24-well plate containing the mites was cultured at room temperature and relatively high humidity. The number of dead mites/the total number of mites was counted separately after 1 h, 2 h, 4 h, 6 h, 8 h, 22 h, and 24 h (time points after drug addition), and mite mortality rates were calculated. The project ended 24 h after drug addition.
At a corresponding time point, a mite mortality rate greater than or equal to 90% is denoted as "+++", a mite mortality rate less than 90% and greater than or equal to 50% is denoted as "++", and a mite mortality rate less than 50% is denoted as "+".

[1] = 4 h after drug addition, read-out: Mite Mortality Rate 4 h
[2] = 24 h after drug addition, read-out: Mite Mortality Rate 24 h

SMILES	mortality at 30 µM [1] [%]	mortality at 30 µM [2] [%]	Mite Mortality Rate 4 h (4 h after drug addition)	Mite Mortality Rate 24 h (24 h after drug addition)
Cc1cc(C2=NOC(c3cc(Cl)cc(Cl)c3F)(C(F)(F)F)C2)ccc1C(=O)NCC(=O)NC1(C(F)(F)F)CC1 (centres unmarked) [Example 019, 4-(5-(3,5-dichloro-2-fluorophenyl)-5-(trifluoromethyl)-4,5-dihydroisoxazol-3-yl)-2-methyl-N-(2-oxo-2-((1-(trifluoromethyl)cyclopropyl)amino)ethyl)benzamide]	50 to 90	> 90		
Cc1cc(C2=NOC(c3cc(Cl)c(F)c(Cl)c3)(C(F)(F)F)C2)ccc1C(=O)NCC(=O)N1CC(F)(CF)C1 (centres unmarked) [Example 005, 4-(5-(3,5-dichloro-4-fluorophenyl)-5-(trifluoromethyl)-4,5-dihydroisoxazol-3-yl)-N-(2-(3-fluoro-3-(fluoromethyl)azetidin-1-yl)-2-oxoethyl)-2-methylbenzamide]	50 to 90	> 90		
Cc1cc(C2=NOC(c3cc(Cl)cc(Cl)c3)(C(F)(F)F)C2)ccc1C(=O)NCC(=O)N1CCCC1C(F)(F)F (centres unmarked) [Example 016, 4-(5-(3,5-dichlorophenyl)-5-(trifluoromethyl)-4,5-dihydroisoxazol-3-yl)-2-methyl-N-(2-oxo-2-(2-(trifluoromethyl)pyrrolidin-1-yl)ethyl)benzamide]	< 50	< 50		
Cc1cc(C2=NOC(c3cc(Cl)c(Cl)c(Cl)c3)(C(F)(F)F)C2)ccc1C(=O)NCC(=O)N1CC(F)(CF)C1 (centres unmarked) [Example 003, N-(2-(3-fluoro-3-(fluoromethyl)azetidin-1-yl)-2-oxoethyl)-2-methyl-4-(5-(3,4,5-trichlorophenyl) -5-(trifluoromethyl)-4,5-dihydroisoxazol-3-yl)benzamide]	< 50	> 90		
Cc1cc(C2=NO[C@](c3cc(Cl)cc(Cl)c3)(C(F)(F)F)C2)ccc1C(=O)NCC(=O)NC1(C(F)(F)F)CC1 [Example 012, (R)-4-(5-(3,5-dichlorophenyl)-5-(trifluoromethyl)-4,5-dihydroisoxazol-3-yl)-2-methyl-N-(2-oxo-2-((1-(trifluoromethyl)cyclopropyl)amino)ethyl)benzamide]	< 50	< 50		
Cc1c(C(=O)NCC(=O)NCC(F)(F)F)ccc(C2=NOC(c3cc(Cl)cc(Cl)c3)(C(F)(F)F)C2)c1F (centres unmarked) [Example 044]			+++ (a mite mortality rate greater than or equal to 90% is denoted as "+++")	+++ (a mite mortality rate greater than or equal to 90% is denoted as "+++")
Cc1cc(Cl)cc(C2(C(F)(F)F)CC(c3ccc(C(=O)NCC(=O)NC4(C(F)(F)F)CC4)c(C)c3)=NO2)c1 (centres unmarked) [Example 032, 4-(5-(3-chloro-5-methylphenyl)-5-(trifluoromethyl)-4,5-dihydroisoxazol-3-yl)-2-methyl-N-(2-oxo-2-((1-(trifluoromethyl)cyclopropyl)amino)ethyl)benzamide]	< 50	> 90		
Cc1cc(C2=NOC(c3cc(Cl)cc(Cl)c3)(C(F)(F)F)C2)ccc1C(=O)NCC(=O)N1CCC1C(F)(F)F (centres unmarked) [Example 006, 4-(5-(3,5-dichlorophenyl)-5-(trifluoromethyl)-4,5-dihydroisoxazol-3-yl)-2-methyl-N-(2-oxo-2-(2-(trifluoromethyl)azetidin-1-yl)ethyl)benzamide]	< 50	> 90		
Cc1cc(C2=NOC(c3cc(F)cc(C(F)(F)F)c3)(C(F)(F)F)C2)ccc1C(=O)NCC(=O)NC1(C(F)(F)F)CC1 (centres unmarked) [Example 031, 4-(5-(3-fluoro-5-(trifluoromethyl)phenyl)-5-(trifluoromethyl)-4,5-dihydroisoxazol-3-yl)-2-methy 1-N-(2-oxo-2-((1-(trifluoromethyl)cyclopropyl)amino)ethyl)benzamide]			+++ (a mite mortality rate greater than or equal to 90% is denoted as "+++")	+++ (a mite mortality rate greater than or equal to 90% is denoted as "+++")
COc1cc(Cl)cc(C2(C(F)(F)F)CC(c3ccc(C(=O)NCC(=O)NC4(C(F)(F)F)CC4)c(C)c3)=NO2)c1 (centres unmarked) [Example 033, 4-(5-(3-chloro-5-methoxyphenyl)-5-(trifluoromethyl)-4,5-dihydroisoxazol-3-yl)-2-methyl-N-(2-oxo-2-((1-(trifluoromethyl)cyclopropyl)amino)ethyl)benzamide]	< 50	> 90		
Cc1cc(C2=NOC(c3cc(Cl)cc(Cl)c3)(C(F)(F)F)C2)c(F)cc1C(=O)NCC(=O)NC1CC1 (centres unmarked) [Example 041, N-(2-(cyclopropylamino)-2-oxoethyl)-4-(5-(3,5-dichlorophenyl)-5-(trifluoromethyl)-4,5-dihydroisoxazol-3-yl)-5-fluoro-2-methylbenzamide]	> 90	> 90		
Cc1cc(C2=NOC(c3cc(Cl)c(Cl)c(Cl)c3)(C(F)(F)F)C2)ccc1C(=O)NCC(=O)NC1(C(F)(F)F)CC1 (centres unmarked) [Example 004, 2-methyl-N-(2-oxo-2-((1-(trifluoromethyl)cyclopropyl)amino)ethyl)-4-(5-(3,4,5-trichlorophenyl) -5-(trifluoromethyl)-4,5-dihydroisoxazol-3-yl)benzamide]	< 50	> 90		
Cc1cc(C2=NOC(c3cc(F)c(Cl)c(Cl)c3)(C(F)(F)F)C2)ccc1C(=O)NCC(=O)NC1(C(F)(F)F)CC1 (centres unmarked) [Example 028, 4-(5-(3,4-dichloro-5-fluorophenyl)-5-(trifluoromethyl)-4,5-dihydroisoxazol-3-yl)-2-methyl-N-(2-oxo-2-((1-(trifluoromethyl)cyclopropyl)amino)ethyl)benzamide]	50 to 90	> 90		
Cc1cc(C2=NOC(c3cc(Cl)cc(Cl)c3)(C(F)(F)F)C2)ccc1C(=O)NCC1(NCC(F)(F)F)COC1 (centres unmarked) [Example 015]			+ (a mite mortality rate less than 50% is denoted as "+")	+ (a mite mortality rate less than 50% is denoted as "+")
Cc1cc(C2=NOC(c3cc(Cl)cc(Cl)c3)(C(F)(F)F)C2)ccc1C(=O)NCC(=O)N1CC(F)(F)C1 (centres unmarked) [Example 022, 4-(5-(3,5-dichlorophenyl)-5-(trifluoromethyl)-4,5-dihydroisoxazol-3-yl)-N-(2-(3,3-difluoroazetidin-1-yl)-2-oxoethyl)-2-methylbenzamide]	< 50	50 to 90		
Cc1cc(C2=NOC(c3cc(F)cc(Cl)c3)(C(F)(F)F)C2)ccc1C(=O)NCC(=O)NC1(C(F)(F)F)CC1 (centres unmarked) [Example 027, 4-(5-(3-chloro-5-fluorophenyl)-5-(trifluoromethyl)-4,5-dihydroisoxazol-3-yl)-2-methyl-N-(2-oxo-2-((1-(trifluoromethyl)cyclopropyl)amino)ethyl)benzamide]	50 to 90	> 90		
Cc1cc(C2=NOC(c3cc(Cl)cc(Cl)c3)(C(F)(F)F)C2)ccc1C(=O)NCC(=O)N1CC(F)(CF)C1 (centres unmarked) [Example 026, 4-(5-(3,5-dichlorophenyl)-5-(trifluoromethyl)-4,5-dihydroisoxazol-3-yl)-N-(2-(3-fluoro-3-(fluoromethyl)azetidin-1-yl)-2-oxoethyl)-2-methylbenzamide]	50 to 90	> 90		
Cc1cc(C2=NO[C@](c3cc(Cl)cc(C(F)(F)F)c3)(C(F)(F)F)C2)ccc1C(=O)NCC(=O)NC1(C(F)(F)F)CC1 [Example 009, (R)-4-(5-(3-chloro-5-(trifluoromethyl)phenyl)-5-(trifluoromethyl)-4,5-dihydroisoxazol-3-yl)-2-m ethyl-N-(2-oxo-2-((1-(trifluoromethyl)cyclopropyl)amino)ethyl)benzamide]	< 50	< 50		
O=C(CNC(=O)c1ccc(C2=NOC(c3cc(Cl)cc(Cl)c3)(C(F)(F)F)C2)cc1)NC1(C(F)(F)F)CC1 (centres unmarked) [Example 038, 4-(5-(3,5-dichlorophenyl)-5-(trifluoromethyl)-4,5-dihydroisoxazol-3-yl)-N-(2-oxo-2-((1-(trifluor omethyl)cyclopropyl)amino)ethyl)benzamide]	< 50	> 90		
Cc1cc(C2=NOC(c3cc(Cl)c(F)c(Cl)c3)(C(F)(F)F)C2)ccc1C(=O)NCC(=O)NC1(C(F)(F)F)CC1 (centres unmarked) [Example 001, 4-(5-(3,5-dichloro-4-fluorophenyl)-5-(trifluoromethyl)-4,5-dihydroisoxazol-3-yl)-2-methyl-N-(2-oxo-2-((1-(trifluoromethyl)cyclopropyl)amino)ethyl)benzamide]	< 50	> 90		
Cc1cc(C2=NOC(c3cc(Cl)cc(C(F)(F)F)c3)(C(F)(F)F)C2)ccc1C(=O)NCC(=O)N1CC(F)(CF)C1 (centres unmarked) [Example 013, 4-(5-(3-chloro-5-(trifluoromethyl)phenyl)-5-(trifluoromethyl)-4,5-dihydroisoxazol-3-yl)-N-(2-(3-fluoro-3-(fluoromethyl)azetidin-1-yl)-2-oxoethyl)-2-methylbenzamide]	> 90	> 90		
Cc1cc(C2=NOC(c3cc(Cl)cc(Cl)c3)(C(F)(F)F)C2)ccc1C(=O)N[C@@H](C)C(=O)NC1(C(F)(F)F)CC1 (stereo partly drawn) [Example 036, 4-(5-(3,5-dichlorophenyl)-5-(trifluoromethyl)-4,5-dihydroisoxazol-3-yl)-2-methyl-N-((S)-1-oxo-1-((1-(trifluoromethyl)cyclopropyl)amino)propan-2-yl)benzamide]	< 50	< 50		
